SMILES strings stand for the structures. Where “and” joins values, the source holds several entries; their conditions need not be identical. Equal entries are not always repeated. Toxic doses and inconclusive results are not listed.

The assay relates to P388 leukemia ip, CD2F1 mice, survival T/C. Put plainly: NCI In Vivo Anticancer Drug Screen. Data for tumor model P388 Leukemia (intraperitoneal) in CD2F1 (CDF1) mice. The note with it: endpoint: median survival time, higher = longer survival. Summed up: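 Mice carrying the transplanted tumor received test compound or vehicle. Survival was recorded in each group, and the value is the treated-group measurement divided by that of the vehicle-treated control group.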

Setting [1] is: dose: 50.0 mg/kg/injection, schedule: Q01DX009 (ip), vehicle: saline.
Where [2] appears, read: dose: 60.0 mg/kg/injection, schedule: Q01DX005 (ip), vehicle: saline with Tween-80.
[3] abbreviates: dose: 120.0 mg/kg/injection, schedule: Q01DX005 (ip), vehicle: saline with Tween-80.
[4] abbreviates: dose: 50.0 mg/kg/injection, schedule: Q01DX005 (ip), vehicle: saline with Tween-80.
The mark [5] stands for this setting: dose: 100.0 mg/kg/injection, schedule: Q01DX005 (ip), vehicle: saline with Tween-80.
The mark [6] stands for this setting: dose: 100.0 mg/kg/injection, schedule: Q01DX009 (ip), vehicle: saline.
[7] abbreviates: dose: 50.0 mg/kg/injection, schedule: Q01DX005 (ip), vehicle: Klucel (hydroxypropylcellulose) (HPC).
Where [8] appears, read: dose: 100.0 mg/kg/injection, schedule: Q01DX005 (ip), vehicle: Klucel (hydroxypropylcellulose) (HPC).
The mark [9] stands for this setting: dose: 200.0 mg/kg/injection, schedule: Q01DX005 (ip), vehicle: Klucel (hydroxypropylcellulose) (HPC).
Setting [10] is: dose: 50.0 mg/kg/injection, schedule: Q01DX009 (ip), vehicle: saline with Tween-80.
Where [11] appears, read: dose: 100.0 mg/kg/injection, schedule: Q01DX009 (ip), vehicle: saline with Tween-80.
Setting [12] is: dose: 200.0 mg/kg/injection, schedule: Q01DX009 (ip), vehicle: saline with Tween-80.
The mark [13] stands for this setting: dose: 25.0 mg/kg/injection, schedule: Q01DX005 (ip), vehicle: saline with Tween-80.

For the compound `COc1ccc(C(=O)C(=O)c2ccccc2)cc1`, the T/C by setting is: (dose: 60.0 mg/kg/injection, schedule: Q01DX005 (ip), vehicle: Klucel (hydroxypropylcellulose) (HPC)) 105 % of control; (dose: 120.0 mg/kg/injection, schedule: Q01DX005 (ip), vehicle: Klucel (hydroxypropylcellulose) (HPC)) 100 % of control; (dose: 240.0 mg/kg/injection, schedule: Q01DX005 (ip), vehicle: Klucel (hydroxypropylcellulose) (HPC)) 98 % of control.
Take `CC1(C(=O)O)CCCC2(C)C3=CC(=O)OC3(OO)CCC12` (configuration not stated): the T/C is 104 % of control (dose: 12.5 mg/kg/injection, schedule: Q01DX009 (ip), vehicle: saline); 101 % of control (dose: 25.0 mg/kg/injection, schedule: Q01DX009 (ip), vehicle: saline); 101 % of control under setting [1].
As to `COC(=O)c1nc(N)nc(C(=O)OC)c1C(=O)c1ccc(Cl)cc1Cl`, the T/C runs as follows: under setting [2], 95 % of control; under setting [3], 100 % of control.
For `Cc1ccc(C)c(C(O)(c2cc(C)ccc2C)C2(O)CCCCC2)c1`, the T/C reads like this: under setting [4], 106 % of control; under setting [5], 103 % of control; (dose: 200.0 mg/kg/injection, schedule: Q01DX005 (ip), vehicle: saline with Tween-80) 97 % of control.
For `CNC(=O)C1CCCN1C(=O)C(Cl)Cl` (configuration not stated), the T/C by setting is: under setting [1], 96 % of control; under setting [6], 93 % of control and 96 % of control; (dose: 200.0 mg/kg/injection, schedule: Q01DX009 (ip), vehicle: saline) 86 % of control and 92 % of control.
Turning to `CCN(C(=O)CNCC(C)C)c1ccc(C)c(Cl)c1`, the T/C reads like this: (dose: 50.0 mg/kg/injection, schedule: Q01DX005 (ip), vehicle: saline) 100 % of control; (dose: 100.0 mg/kg/injection, schedule: Q01DX005 (ip), vehicle: saline) 99 % of control.
For `N#Cc1c(NC(=O)Nc2cc(C(F)(F)F)ccc2Cl)sc(=S)c2c1CCCC2`, the T/C was 100 % of control under setting [4] and 103 % of control under setting [5].
On to `COc1cccc2c1C(=O)c1c(O)c3c(c(O)c1C2=O)C[C@@](O)(C(=O)O)C[C@@H]3OC1CC(N)C(O)C(C)O1` (some centres not stated), for which the T/C is 88 % of control (dose: 3.13 mg/kg/injection, schedule: Q01DX009 (ip), vehicle: water); 123 % of control (dose: 6.25 mg/kg/injection, schedule: Q01DX009 (ip), vehicle: water); 114 % of control (dose: 18.75 mg/kg/injection, schedule: Q01DX001 (ip), vehicle: water); 121 % of control (dose: 37.5 mg/kg/injection, schedule: Q01DX001 (ip), vehicle: water); 155 % of control (dose: 50.0 mg/kg/injection, schedule: Q01DX009 (ip), vehicle: water); 114 % of control (dose: 75.0 mg/kg/injection, schedule: Q01DX001 (ip), vehicle: water). In addition, the T/C is 158 % of control (dose: 100.0 mg/kg/injection, schedule: Q01DX009 (ip), vehicle: water); 122 % of control (dose: 150.0 mg/kg/injection, schedule: Q01DX001 (ip), vehicle: water); 123 % of control (dose: 300.0 mg/kg/injection, schedule: Q01DX001 (ip), vehicle: water).
As to `CCOC(=O)c1ccc(OCC#N)cc1`, the T/C under setting [7] was 93 % of control, the T/C under setting [8] was 102 % of control and the T/C under setting [9] was 98 % of control.
`CCOC(=O)c1[nH]c2ccc(O)c3c2c1CCC3=O`: the T/C by setting is: under setting [10], 92 % of control; under setting [11], 88 % of control; under setting [12], 94 % of control.
Regarding `CCOC(=O)c1ccc(NC(=O)Oc2ccc3c(C)cc(=O)oc3c2)cc1`, the T/C under setting [2] was 98 % of control; the T/C under setting [3] is 98 % of control; the T/C (dose: 240.0 mg/kg/injection, schedule: Q01DX005 (ip), vehicle: saline with Tween-80) is 103 % of control.
For `CC(Nc1cnccn1)Nc1cnccn1`, the T/C is 102 % of control under setting [7], 105 % of control under setting [8] and 104 % of control under setting [9].
For the compound `Cc1ccc(N)c(N)c1`, the T/C is 99 % of control under setting [11]; 107 % of control under setting [6]; 109 % of control under setting [12]; 123 % of control (dose: 400.0 mg/kg/injection, schedule: Q01DX009 (ip), vehicle: saline with Tween-80).
Turning to `Cc1cccc2nccn12`, the T/C (dose: 6.25 mg/kg/injection, schedule: Q01DX009 (ip), vehicle: saline with Tween-80) was 97 % of control; the T/C (dose: 12.5 mg/kg/injection, schedule: Q01DX009 (ip), vehicle: saline with Tween-80) was 95 % of control; the T/C (dose: 25.0 mg/kg/injection, schedule: Q01DX009 (ip), vehicle: saline with Tween-80) was 97 % of control; the T/C under setting [10] was 100 % of control.
Regarding `NCCCn1[nH]c(=O)c2ccncc2c1=O`, the T/C (dose: 100.0 mg/kg/injection, schedule: Q04DX002 (ip), vehicle: saline) is 97 % of control; the T/C (dose: 200.0 mg/kg/injection, schedule: Q04DX002 (ip), vehicle: saline) was 97 % of control; the T/C (dose: 400.0 mg/kg/injection, schedule: Q04DX002 (ip), vehicle: saline) is 95 % of control.
Turning to `CCCCN(CCCC)CCNc1ccc(C)c2sc3ccc(Cl)cc3c(=O)c12`, the T/C is 88 % of control (dose: 12.5 mg/kg/injection, schedule: Q01DX005 (ip), vehicle: saline with Tween-80); 88 % of control under setting [13]; 89 % of control under setting [4].
Take `COc1cc(CC2c3cc(OC)c(OC)cc3CCN2C)c(Oc2cc3c(cc2OC)-c2c(O)c(OC)cc4c2C(C3)N(C)CC4)cc1OC` (configuration not stated): the T/C (dose: 12.5 mg/kg/injection, schedule: Q04DX003 (ip), vehicle: saline with Tween-80) is 101 % of control; the T/C (dose: 25.0 mg/kg/injection, schedule: Q04DX003 (ip), vehicle: saline with Tween-80) was 101 % of control; the T/C (dose: 50.0 mg/kg/injection, schedule: Q04DX003 (ip), vehicle: saline with Tween-80) was 100 % of control; the T/C (dose: 200.0 mg/kg/injection, schedule: Q04DX003 (ip), vehicle: saline with Tween-80) was 89 % of control; the T/C (dose: 400.0 mg/kg/injection, schedule: Q04DX003 (ip), vehicle: saline with Tween-80) is 97 % of control.
`C[C@@]12N[C@H]3S[C@]1(C)c1ccccc1N2C[C@@H]3C#N`: the T/C was 99 % of control under setting [13]; 86 % of control and 94 % of control under setting [4]; 96 % of control under setting [5].
Take `C=CCCCC(=O)CCCCO`: the T/C reads like this: (dose: 50.0 mg/kg/injection, schedule: Q01DX009 (ip), vehicle: other) 95 % of control; (dose: 100.0 mg/kg/injection, schedule: Q01DX009 (ip), vehicle: other) 107 % of control; (dose: 200.0 mg/kg/injection, schedule: Q01DX009 (ip), vehicle: other) 101 % of control.
Consider `C=C1C2CCC3C(CCC4C35CCC[C@]4(C)CN3CCO[C@H]35)(C2)[C@@H]1O` (some centres not stated), for which the T/C is 108 % of control (dose: 4.0 mg/kg/injection, schedule: Q01DX009 (ip), vehicle: Klucel (hydroxypropylcellulose) (HPC)); 110 % of control (dose: 8.0 mg/kg/injection, schedule: Q01DX009 (ip), vehicle: Klucel (hydroxypropylcellulose) (HPC)); 94 % of control (dose: 16.0 mg/kg/injection, schedule: Q01DX009 (ip), vehicle: Klucel (hydroxypropylcellulose) (HPC)); 99 % of control (dose: 32.0 mg/kg/injection, schedule: Q01DX009 (ip), vehicle: Klucel (hydroxypropylcellulose) (HPC)).
As to `CCCCCCCCCC1(CC(=O)OCC)SCCN1C(N)=O` (configuration not stated), the T/C is, setting by setting: (dose: 50.0 mg/kg/injection, schedule: Q01DX009 (ip), vehicle: Klucel (hydroxypropylcellulose) (HPC)) 113 % of control; (dose: 100.0 mg/kg/injection, schedule: Q01DX009 (ip), vehicle: Klucel (hydroxypropylcellulose) (HPC)) 107 % of control; (dose: 200.0 mg/kg/injection, schedule: Q01DX009 (ip), vehicle: Klucel (hydroxypropylcellulose) (HPC)) 115 % of control.
With `CCCCCCC(=O)/C=C/c1c(OC)cc(OC)cc1OC`, the T/C runs as follows: under setting [10], 101 % of control; under setting [11], 101 % of control; under setting [12], 97 % of control.
For `COC(=O)c1cccc(OCC(=O)Nc2ccccc2)c1`, the T/C is 100 % of control (dose: 100.0 mg/kg/injection, schedule: Q01DX001 (ip), vehicle: saline with Tween-80); 100 % of control (dose: 200.0 mg/kg/injection, schedule: Q01DX001 (ip), vehicle: saline with Tween-80); 90 % of control (dose: 400.0 mg/kg/injection, schedule: Q01DX001 (ip), vehicle: saline with Tween-80).

These data come from PubChem BioAssay AID330 (DTP/NCI, 2004).
